Source: ChEMBL document CHEMBL1201862, “PubChem BioAssay data set” (2004)
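In this assay, cells in 96-well plates receive the compound at five concentrations for 48 hours. Endpoints are linearly interpolated between the surrounding concentrations. Here, GI50 denotes the concentration required for 50% inhibition of growth.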 Activity calls are given as the source filed them. Rule as the data show it: active = GI50 up to about 1.1 µM and inactive = higher.

Experiments:
Test in all cases: growth of human tumour cells (NCI), 48 h
UACC-62 = system: UACC-62
SF-268 = system: SF-268
DU-145 = system: DU-145
786-0 = system: 786-0
COLO 205 = system: COLO 205
RXF 393 = system: RXF 393
UO-31 = system: UO-31
UACC-257 = system: UACC-257
MDA-MB-231 = system: MDA-MB-231
ACHN = system: ACHN
NCI-H460 = system: NCI-H460
BT-549 = system: BT-549
CAKI-1 = system: CAKI-1
HT-29 = system: HT-29
SK-MEL-5 = system: SK-MEL-5
K562 = system: K562
SNB-19 = system: SNB-19
MDA-N = system: MDA-N
A549 = system: A549
PC-3 = system: PC-3
SNB-75 = system: SNB-75
OVCAR-3 = system: OVCAR-3
T47D = system: T47D
NCI-H226 = system: NCI-H226
LOX IMVI = system: LOX IMVI
HCT-116 = system: HCT-116
SF-539 = system: SF-539
HOP-62 = system: HOP-62
EKVX = system: EKVX
MCF7 = system: MCF7
HCC 2998 = system: HCC 2998
TK-10 = system: TK-10
NCI-H522 = system: NCI-H522
KM12 = system: KM12
RPMI-8226 = system: RPMI-8226
IGROV-1 = system: IGROV-1
OVCAR-4 = system: OVCAR-4
M14 = system: M14
U-251 = system: U-251
HOP-92 = system: HOP-92
CCRF-CEM = system: CCRF-CEM
OVCAR-8 = system: OVCAR-8
MDA-MB-435 = system: MDA-MB-435
SK-MEL-2 = system: SK-MEL-2
HL-60 = system: HL-60
NCI/ADR-RES = system: NCI/ADR-RES
Malme-3M = system: Malme-3M
SW-620 = system: SW-620
A498 = system: A498
SK-OV-3 = system: SK-OV-3
SN12C = system: SN12C
HCT-15 = system: HCT-15
Hs-578T = system: Hs-578T
SF-295 = system: SF-295
OVCAR-5 = system: OVCAR-5
NCI-H23 = system: NCI-H23
SK-MEL-28 = system: SK-MEL-28

## COc1cc(O)c(/C=N/N=C(\N)NO)c(OC)c1
UACC-62
  GI50: 9.71 µM (inactive)
SF-268
  GI50: > 10 µM (inactive)
DU-145
  GI50: 6.24 µM (inactive)
786-0
  GI50: > 10 µM (inactive)
COLO 205
  GI50: > 10 µM (inactive)
RXF 393
  GI50: 8.3 µM (inactive)
UO-31
  GI50: > 10 µM (inactive)
UACC-257
  GI50: > 10 µM (inactive)
MDA-MB-231
  GI50: > 10 µM (inactive)
ACHN
  GI50: 9.14 µM (inactive)
NCI-H460
  GI50: 4.08 µM (inactive)
BT-549
  GI50: > 10 µM (inactive)
CAKI-1
  GI50: > 10 µM (inactive)
HT-29
  GI50: 6.31 µM (inactive)
SK-MEL-5
  GI50: > 10 µM (inactive)
K562
  GI50: > 10 µM (inactive)
SNB-19
  GI50: > 10 µM (inactive)
MDA-N
  GI50: > 10 µM (inactive)
A549
  GI50: > 10 µM (inactive)
PC-3
  GI50: 6.18 µM (inactive)
SNB-75
  GI50: 1.56 µM (inactive)
OVCAR-3
  GI50: 5.5 µM (inactive)
T47D
  GI50: > 10 µM (inactive)
NCI-H226
  GI50: 5.11 µM (inactive)
LOX IMVI
  GI50: 7.6 µM (inactive)
HCT-116
  GI50: 6.19 µM (inactive)
SF-539
  GI50: > 10 µM (inactive)
HOP-62
  GI50: 9.93 µM (inactive)
EKVX
  GI50: > 10 µM (inactive)
MCF7
  GI50: > 10 µM (inactive)
HCC 2998
  GI50: > 10 µM (inactive)
TK-10
  GI50: > 10 µM (inactive)
NCI-H522
  GI50: > 10 µM (inactive)
KM12
  GI50: 8.18 µM (inactive)
RPMI-8226
  GI50: > 10 µM (inactive)
IGROV-1
  GI50: > 10 µM (inactive)
OVCAR-4
  GI50: > 10 µM (inactive)
M14
  GI50: > 10 µM (inactive)
U-251
  GI50: > 10 µM (inactive)
HOP-92
  GI50: > 10 µM (inactive)
CCRF-CEM
  GI50: 5.57 µM (inactive)
OVCAR-8
  GI50: > 10 µM (inactive)
MDA-MB-435
  GI50: > 10 µM (inactive)
SK-MEL-2
  GI50: > 10 µM (inactive)
HL-60
  GI50: > 10 µM (inactive)
NCI/ADR-RES
  GI50: 5.04 µM (inactive)
Malme-3M
  GI50: > 10 µM (inactive)
SW-620
  GI50: > 10 µM (inactive)
A498
  GI50: > 10 µM (inactive)
SK-OV-3
  GI50: > 10 µM (inactive)
SN12C
  GI50: > 10 µM (inactive)
HCT-15
  GI50: 5.04 µM
Hs-578T
  GI50: > 10 µM (inactive)
SF-295
  GI50: 4.92 µM (inactive)
OVCAR-5
  GI50: > 10 µM (inactive)
NCI-H23
  GI50: > 10 µM (inactive)
SK-MEL-28
  GI50: > 10 µM (inactive)
